The values that follow come from US10670605B2, “Cysteine reactive probes and uses thereof” (The Scripps Research Institute, priority 2015, dated 2020).

Molecules are shown by their SMILES.

Test in all cases: Competitive isoTOP-ABPP, cell lysates
Common to all, as to format: binding

The target of one experiment is PRMT1 C109 (Q99873) (Homo sapiens, UniProt Q99873). As to conditions: for isoTOP-ABPP reactivity profile ratio, Q99873_C109 / isoTOP-ABPP reactivity ratio, Q99873_C109: 500 μm. As for the experimental part:
(§1) TEV digests were pressure loaded onto a 250 μm (inner diameter) fused silica capillary column packed with C18 resin (Aqua 5 μm, Phenomenex). The samples were analyzed by multidimensional liquid chromatography tandem mass spectrometry (MudPIT), using an LTQ-Velos Orbitrap mass spectrometer (Thermo Scientific) coupled to an Agilent 1200-series quaternary pump. The peptides were eluted onto a biphasic column with a 5 μm tip (100 μm fused silica, packed with C18 (10 cm) and bulk strong cation exchange resin (3 cm, SCX, Phenomenex,)) in a 5-step MudPIT experiment, using 0%, 30%, 60%, 90%, and 100% salt bumps of 500 mM aqueous ammonium acetate and using a gradient of 5-100% buffer B in buffer A (buffer A: 95% water, 5% acetonitrile, 0.1% formic acid; buffer B: 5% water, 95% acetonitrile, 0.1% formic acid) as has been described in Weerapana et al. Nat Protoc 2:1414-1425 (2007). Data was collected in data-dependent acquisition mode with dynamic exclusion enabled (20 s, repeat of 2). One full MS (MS1) scan (400-1800 m/z) was followed by 30 MS2 scans (ITMS) of the nth most abundant ions.
(§2) The ratios of heavy/light for each unique peptide (DMSO/compound treated; isoTOP-ABPP ratios, R values) were quantified with in-house CIMAGE software, using default parameters (3 ms s per peak and signal to noise threshold 2.5). Site-specific engagement of electrophilic fragments was assessed by blockade of IA-alkyne probe labeling. […] Ratios for unique peptide entries were calculated for each experiment; overlapping peptides with the same modified cysteine (e.g. different charge states, MudPIT chromatographic steps or tryptic termini) were grouped together and the median ratio was reported as the final ratio (R). The peptide ratios reported by CIMAGE were further filtered to ensure the removal or correction of low quality ratios in each individual dataset. The quality filters applied were the following: removal of half tryptic peptides; for ratios with high standard deviations from the median (90% of the median or above) the lowest ratio was taken instead of the median; removal of peptides with R=20 and only a single ms2 event triggered during the elution of the parent ion; manual annotation of all the peptides with ratios of 20, removing any peptides with low-quality elution profiles that remained after the previous curation steps. Proteome reactivity values for individual fragments were computed as the percentage of the total quantified cysteine-containing peptides with R values≥4 (defined as liganded cysteines) for each replicate experiment and the final proteome reactivity value was calculated as the mean for all replicate experiments for each fragment from both MDA-MB-231 and Ramos cellular proteomes.
(§3) Biological replicates of the same compound and cell-line were averaged if the standard deviation was below 60% of the mean; otherwise the lowest value of the ratio set was taken.

The next experiment addresses T1, MGMT C150 (P16455) (Homo sapiens, UniProt P16455).
T1 sequence (P16455 1-207): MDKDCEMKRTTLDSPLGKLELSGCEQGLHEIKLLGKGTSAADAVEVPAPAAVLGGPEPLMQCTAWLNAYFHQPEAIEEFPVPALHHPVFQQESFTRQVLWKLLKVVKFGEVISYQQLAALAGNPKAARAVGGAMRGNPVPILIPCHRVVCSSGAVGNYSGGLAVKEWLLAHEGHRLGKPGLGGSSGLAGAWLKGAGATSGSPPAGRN
As for the experimental part: as §1, §2, §3

For another experiment, the target named is GSTP1 C48 (P09211) (Homo sapiens, UniProt P09211). Particulars: for isoTOP-ABPP reactivity profile ratio, P09211_C48 / isoTOP-ABPP reactivity ratio, P09211_C48: 500 μm. As for the experimental part:
as §1, §2, §3

Another experiment has as its target XPO1 C34 (O14980) (Homo sapiens, UniProt O14980). As to conditions: for isoTOP-ABPP reactivity profile ratio, O14980_C34 / isoTOP-ABPP reactivity ratio, O14980_C34: 500 μm. As for the experimental part: as §1, §2, §3
The target of a further experiment is T2, PCK2 C306 (Q16822) (Homo sapiens, UniProt Q16822).
T2 sequence (Q16822 33-640): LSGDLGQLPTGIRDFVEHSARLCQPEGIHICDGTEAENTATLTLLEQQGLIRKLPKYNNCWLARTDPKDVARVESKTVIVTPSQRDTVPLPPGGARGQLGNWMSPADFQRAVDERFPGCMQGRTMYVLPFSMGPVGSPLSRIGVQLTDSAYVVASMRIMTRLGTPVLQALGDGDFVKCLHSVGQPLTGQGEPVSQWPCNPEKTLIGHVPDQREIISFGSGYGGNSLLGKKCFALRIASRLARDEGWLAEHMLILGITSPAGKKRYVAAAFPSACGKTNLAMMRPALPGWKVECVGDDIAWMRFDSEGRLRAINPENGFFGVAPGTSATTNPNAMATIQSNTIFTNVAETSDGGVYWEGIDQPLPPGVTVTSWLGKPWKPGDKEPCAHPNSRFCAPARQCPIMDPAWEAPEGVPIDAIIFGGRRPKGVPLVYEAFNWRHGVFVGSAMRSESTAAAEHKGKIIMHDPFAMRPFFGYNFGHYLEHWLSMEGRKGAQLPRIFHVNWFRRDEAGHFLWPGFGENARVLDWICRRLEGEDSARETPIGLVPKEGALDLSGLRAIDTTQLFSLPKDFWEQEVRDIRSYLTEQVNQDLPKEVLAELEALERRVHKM
As to conditions: for isoTOP-ABPP reactivity profile ratio, Q16822_C306: 500 μm. As for the experimental part:
as §1, §2, §3

For the next experiment, the target named is T3, PDIA6 C190 (Q15084) (Homo sapiens, UniProt Q15084).
T3 sequence (Q15084 20-440): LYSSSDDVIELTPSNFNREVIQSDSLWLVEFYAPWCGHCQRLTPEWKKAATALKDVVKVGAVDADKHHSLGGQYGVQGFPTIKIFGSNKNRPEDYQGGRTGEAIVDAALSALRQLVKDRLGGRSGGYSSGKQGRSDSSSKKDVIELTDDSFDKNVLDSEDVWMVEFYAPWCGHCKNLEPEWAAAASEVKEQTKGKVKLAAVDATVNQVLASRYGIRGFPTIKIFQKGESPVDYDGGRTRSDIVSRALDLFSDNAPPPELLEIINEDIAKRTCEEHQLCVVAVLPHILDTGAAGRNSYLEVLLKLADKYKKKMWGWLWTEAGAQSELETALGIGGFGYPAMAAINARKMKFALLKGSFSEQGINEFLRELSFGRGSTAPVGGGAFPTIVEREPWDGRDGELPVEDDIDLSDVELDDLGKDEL
As for the experimental part: as §1, §2, §3

The next experiment concerns the target STAT3 C259 (P40763) (Homo sapiens, UniProt P40763). As for the experimental part:
as §1, §2, §3

The target in a further experiment is IDH1 C269 (O75874) (Homo sapiens, UniProt O75874). As for the experimental part:
as §1, §2, §3
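Throughout, for isoTOP-ABPP reactivity profile ratio, P09211 C48: Heavy/light ratio DMSO over fragment-treated so higher means more cysteine engagement.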
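Throughout, for isoTOP-ABPP reactivity profile ratio, Q15084 C190: Heavy/light ratio DMSO over fragment-treated so higher means more cysteine engagement.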
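Throughout, for isoTOP-ABPP reactivity profile ratio, Q99873 C109: Heavy/light ratio DMSO over fragment-treated so higher means more cysteine engagement.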

Chain of PRMT1 C109 (Q99873) (Q99873 whole entry, the tested form may be a part): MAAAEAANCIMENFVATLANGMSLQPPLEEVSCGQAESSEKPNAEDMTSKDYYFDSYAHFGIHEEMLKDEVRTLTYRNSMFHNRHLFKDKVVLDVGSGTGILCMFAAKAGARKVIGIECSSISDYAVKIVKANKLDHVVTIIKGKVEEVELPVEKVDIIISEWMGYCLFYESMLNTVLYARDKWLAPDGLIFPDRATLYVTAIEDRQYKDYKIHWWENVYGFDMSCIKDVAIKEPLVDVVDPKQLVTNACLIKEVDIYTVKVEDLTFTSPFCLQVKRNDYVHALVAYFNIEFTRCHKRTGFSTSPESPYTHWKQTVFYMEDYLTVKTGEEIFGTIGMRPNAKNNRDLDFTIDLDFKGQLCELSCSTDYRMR
Chain of XPO1 C34 (O14980) (O14980 whole entry): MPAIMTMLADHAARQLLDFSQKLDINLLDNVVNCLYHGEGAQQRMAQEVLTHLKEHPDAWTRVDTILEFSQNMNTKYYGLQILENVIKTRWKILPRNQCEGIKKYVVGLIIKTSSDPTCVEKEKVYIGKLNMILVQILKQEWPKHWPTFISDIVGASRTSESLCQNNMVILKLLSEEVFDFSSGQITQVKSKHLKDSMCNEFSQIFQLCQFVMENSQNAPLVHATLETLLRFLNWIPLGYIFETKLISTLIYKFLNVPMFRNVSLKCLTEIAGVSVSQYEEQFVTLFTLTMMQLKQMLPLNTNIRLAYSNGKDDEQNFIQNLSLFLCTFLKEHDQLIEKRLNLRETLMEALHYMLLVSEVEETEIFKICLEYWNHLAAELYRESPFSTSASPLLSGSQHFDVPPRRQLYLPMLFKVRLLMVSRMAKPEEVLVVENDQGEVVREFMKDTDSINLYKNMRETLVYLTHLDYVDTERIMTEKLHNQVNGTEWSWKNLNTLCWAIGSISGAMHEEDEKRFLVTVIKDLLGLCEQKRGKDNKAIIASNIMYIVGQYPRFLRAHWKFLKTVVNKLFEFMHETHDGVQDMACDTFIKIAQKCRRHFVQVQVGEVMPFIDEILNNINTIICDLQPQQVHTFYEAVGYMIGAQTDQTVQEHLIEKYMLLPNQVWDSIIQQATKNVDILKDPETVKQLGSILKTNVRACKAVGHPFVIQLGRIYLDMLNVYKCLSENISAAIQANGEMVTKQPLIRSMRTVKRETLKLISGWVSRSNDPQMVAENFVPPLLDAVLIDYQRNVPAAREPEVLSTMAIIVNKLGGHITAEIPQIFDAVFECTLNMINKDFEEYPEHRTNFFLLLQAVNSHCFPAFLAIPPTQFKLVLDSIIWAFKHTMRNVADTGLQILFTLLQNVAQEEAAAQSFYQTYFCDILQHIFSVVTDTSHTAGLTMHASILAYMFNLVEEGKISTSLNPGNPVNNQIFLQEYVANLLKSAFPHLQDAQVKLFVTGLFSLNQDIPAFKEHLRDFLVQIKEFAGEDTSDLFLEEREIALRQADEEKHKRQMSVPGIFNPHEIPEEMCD
Chain of GSTP1 C48 (P09211) (P09211 whole entry): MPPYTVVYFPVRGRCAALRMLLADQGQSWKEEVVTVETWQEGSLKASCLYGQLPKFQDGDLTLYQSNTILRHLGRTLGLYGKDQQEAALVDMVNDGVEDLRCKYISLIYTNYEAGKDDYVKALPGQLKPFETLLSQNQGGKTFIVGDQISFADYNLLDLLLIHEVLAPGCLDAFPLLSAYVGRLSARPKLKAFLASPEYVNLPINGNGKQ
Chain of IDH1 C269 (O75874) (O75874 whole entry): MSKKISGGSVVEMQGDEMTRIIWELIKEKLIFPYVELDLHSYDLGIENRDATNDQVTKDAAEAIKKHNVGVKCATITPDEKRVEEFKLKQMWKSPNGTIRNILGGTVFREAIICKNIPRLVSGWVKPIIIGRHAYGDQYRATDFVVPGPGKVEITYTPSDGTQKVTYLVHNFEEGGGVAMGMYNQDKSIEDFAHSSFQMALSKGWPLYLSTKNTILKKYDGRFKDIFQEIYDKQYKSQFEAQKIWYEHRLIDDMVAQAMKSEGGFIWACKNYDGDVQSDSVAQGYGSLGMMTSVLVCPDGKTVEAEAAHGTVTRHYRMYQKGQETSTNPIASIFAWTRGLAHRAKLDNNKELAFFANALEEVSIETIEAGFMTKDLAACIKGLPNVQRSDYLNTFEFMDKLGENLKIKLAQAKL
Chain of STAT3 C259 (P40763) (P40763 whole entry): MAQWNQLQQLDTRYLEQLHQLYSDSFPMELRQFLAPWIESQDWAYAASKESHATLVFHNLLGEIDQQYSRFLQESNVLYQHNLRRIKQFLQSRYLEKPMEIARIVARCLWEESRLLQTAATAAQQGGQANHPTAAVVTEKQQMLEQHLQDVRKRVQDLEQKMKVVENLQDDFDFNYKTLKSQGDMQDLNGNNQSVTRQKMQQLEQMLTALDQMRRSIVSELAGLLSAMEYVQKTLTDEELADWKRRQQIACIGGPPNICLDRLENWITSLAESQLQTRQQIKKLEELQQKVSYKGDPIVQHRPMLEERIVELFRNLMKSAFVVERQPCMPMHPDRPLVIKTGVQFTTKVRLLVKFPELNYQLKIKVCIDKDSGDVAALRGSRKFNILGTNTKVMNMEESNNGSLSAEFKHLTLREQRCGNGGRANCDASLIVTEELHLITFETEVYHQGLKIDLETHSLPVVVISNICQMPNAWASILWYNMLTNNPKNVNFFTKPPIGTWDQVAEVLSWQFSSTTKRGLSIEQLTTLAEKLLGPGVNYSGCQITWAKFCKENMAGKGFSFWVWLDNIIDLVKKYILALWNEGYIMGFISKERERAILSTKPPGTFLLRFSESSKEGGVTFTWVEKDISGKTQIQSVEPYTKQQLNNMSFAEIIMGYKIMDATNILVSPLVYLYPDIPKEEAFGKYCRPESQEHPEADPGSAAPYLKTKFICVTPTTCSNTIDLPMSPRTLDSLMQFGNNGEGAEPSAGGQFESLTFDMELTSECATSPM

Take `N#CC(=Cc1ccc(-c2ccccc2Cl)o1)C(N)=O` [compound 42]: on PRMT1 C109 (Q99873) (in-vitro_ramos), the “isoTOP-ABPP reactivity profile ratio, Q99873_C109” value is 0.9. In addition, the “isoTOP-ABPP reactivity profile ratio, P16455_C150” value at MGMT C150 (P16455) (500 μm, in-vitro_ramos) turned out to be 0.8. On GSTP1 C48 (P09211) (in-vitro_ramos), the “isoTOP-ABPP reactivity profile ratio, P09211_C48” value is listed as 0.7. For the same compound, the “isoTOP-ABPP reactivity profile ratio, O14980_C34” value at XPO1 C34 (O14980) (in-vitro_ramos) is listed as 0.9. In addition, the “isoTOP-ABPP reactivity profile ratio, Q16822_C306” value at PCK2 C306 (Q16822) (in-vitro_ramos) was 0.8.

On to `CNS(=O)(=O)C=Cc1ccc2c(ccn2Cc2ccccc2)c1` [compound 6], for which the “isoTOP-ABPP ratio, Q15084_C190” value on PDIA6 C190 (Q15084) (500 μM, invitro, 231) was found to be 1.1. Besides, the “isoTOP-ABPP ratio, Q99873_C109” value at PRMT1 C109 (Q99873) (500 μM, invitro, 231) came out at 1.1. Further, at STAT3 C259 (P40763) (500 μM, invitro, 231), the “isoTOP-ABPP ratio, P40763_C259” value came to 0.6. Moreover, the “isoTOP-ABPP ratio, P09211_C48” value at GSTP1 C48 (P09211) (500 μM, invitro, 231) came to 1.2. The “isoTOP-ABPP ratio, O14980_C34” value at XPO1 C34 (O14980) (500 μM, invitro, 231) is 1.2.

For `O=C(CCl)N(Cc1ccc(F)cc1)C12CC3CC(CC(C3)C1)C2` [compound 34], the “isoTOP-ABPP reactivity ratio, Q15084_C190” value at PDIA6 C190 (Q15084) (500 μm, in-vitro_ramos_231) was found to be 0.9. Further, the figures for the “isoTOP-ABPP reactivity ratio, Q99873_C109” value at PRMT1 C109 (Q99873) (in-vitro_ramos) and at PRMT1 C109 (Q99873) (in-vitro_ramos_231) were 1.1 and 0.8, respectively. The “isoTOP-ABPP reactivity ratio, P16455_C150” value on MGMT C150 (P16455) (500 μm, in-vitro_ramos) was determined as 1.4. In addition, the “isoTOP-ABPP reactivity ratio, P09211_C48” value at GSTP1 C48 (P09211) (in-vitro_ramos) is 1.0; at GSTP1 C48 (P09211) (in-vitro_ramos_231), 0.8. Further, the “isoTOP-ABPP reactivity ratio, O14980_C34” value at XPO1 C34 (O14980) (in-vitro_ramos) came to 1.1; at XPO1 C34 (O14980) (in-vitro_ramos_231), 0.8.

As to `COc1ccc2c(c1)CCCN2C(=O)CCl` [compound 2], the “R value (DMSO/fragment)” value on PDIA6 C190 (Q15084) (500 μM, invitro, ramos) is listed as 15.4; on PRMT1 C109 (Q99873) (500 μM, in vitro, MDA-MB-231) it was 3.1; at PRMT1 C109 (Q99873) (500 μM, invitro, ramos), 12.6; on IDH1 C269 (O75874) (500 μM, in vitro, MDA-MB-231) it was 20.0; on MGMT C150 (P16455) (500 μM, invitro, ramos), 20.0; at GSTP1 C48 (P09211) (500 μM, in vitro, MDA-MB-231), 3.1. The “R value (DMSO/fragment)” value amounted to 1.6 on GSTP1 C48 (P09211) (500 μM, invitro, ramos); 2.8 on XPO1 C34 (O14980) (500 μM, in vitro, MDA-MB-231); 4.6 on XPO1 C34 (O14980) (500 μM, invitro, ramos). In addition, at PRMT1 C109 (Q99873) (competitive isoTOP-ABPP), the “blockade of IA-alkyne labeling of C109 of PRMT1” value is “blocking IA-alkyne labeling”.

As for `C=CC(=O)N(c1ccccc1)C1CCCCC1` [compound 46], the “isoTOP-ABPP reactivity profile ratio, Q15084_C190” value on PDIA6 C190 (Q15084) (500 μm, in-vitro_ramos_231) was determined as 0.9. Also, at PRMT1 C109 (Q99873) (in-vitro_ramos_231), the “isoTOP-ABPP reactivity profile ratio, Q99873_C109” value is 0.8. The “isoTOP-ABPP reactivity profile ratio, P40763_C259” value at STAT3 C259 (P40763) (500 μm, in-vitro_ramos_231) stood at 1.2. Moreover, the “isoTOP-ABPP reactivity profile ratio, O75874_C269” value at IDH1 C269 (O75874) (500 μm, in-vitro_ramos_231) is 0.6. In addition, the “isoTOP-ABPP reactivity profile ratio, P09211_C48” value on GSTP1 C48 (P09211) (in-vitro_ramos_231) came to 1.0. Further, at XPO1 C34 (O14980) (in-vitro_ramos_231), the “isoTOP-ABPP reactivity profile ratio, O14980_C34” value is given as 1.0. For the same compound, the “isoTOP-ABPP reactivity profile ratio, Q16822_C306” value at PCK2 C306 (Q16822) (in-vitro_ramos_231) was found to be 0.9.

Take `CC(Cl)C(=O)Nc1cc(C(F)(F)F)cc(C(F)(F)F)c1` (stereo not drawn) [compound 25]: on PDIA6 C190 (Q15084) (500 μm in-vitro ramos_231), the “isoTOP-ABPP ratio (reactivity profile), Q15084_C190” value stood at 1.0. The “isoTOP-ABPP ratio (reactivity profile), Q99873_C109” value on PRMT1 C109 (Q99873) (500 μm in-vitro ramos_231) came out at 1.0. For the same compound, at STAT3 C259 (P40763) (500 μm in-vitro ramos_231), the “isoTOP-ABPP ratio (reactivity profile), P40763_C259” value is recorded as 0.9. Further, the “isoTOP-ABPP ratio (reactivity profile), O75874_C269” value on IDH1 C269 (O75874) (500 μm in-vitro ramos_231) amounted to 1.0. Moreover, the “isoTOP-ABPP ratio (reactivity profile), P09211_C48” value at GSTP1 C48 (P09211) (500 μm in-vitro ramos_231) was found to be 1.8. Also, the “isoTOP-ABPP ratio (reactivity profile), O14980_C34” value on XPO1 C34 (O14980) (500 μm in-vitro ramos_231) is 0.9. On PCK2 C306 (Q16822) (500 μm in-vitro ramos_231), the “isoTOP-ABPP ratio (reactivity profile), Q16822_C306” value was found to be 0.8.
